In BigSolDB 2.1:

O=C(O)/C=C\C=C/C(=O)O
solubility (mole fraction)
Settings	in acetic acid	in ethanol	in isopropanol	in water
298.15 K	0.0029	0.0117	0.0101	0.0002
303.15 K	0.0034	0.0139	0.0107	0.0004
308.15 K	0.0039	0.016	0.0124	0.0006
313.15 K	0.0044	0.0184	0.0139	0.0008
318.15 K	0.0052	0.0236	0.0156	0.0014
323.15 K	0.0057	0.0293	0.017	0.0021
328.15 K	0.0065	0.037	0.0204	0.0031
333.15 K	0.0076	0.0478	0.0244	0.005
338.15 K	0.0086	0.0595	0.0274	0.0068
343.15 K	0.01	0.0715	0.0297	0.0106
348.15 K	0.0125	0.0847	0.0342	0.0153
